Assay results: ChEMBL document CHEMBL3045695, “2D and 3D QSAR analyses to predict favorable substitution sites in anilino-monoindolylmaleimides acting as PKCII selective inhibitors” (Med Chem Res, 2011)

The compounds below were run against Protein kinase C beta type (Homo sapiens, UniProt P05771) (assay: Inhibition of PKCbeta2 (unknown origin)). Settings: read-out: IC50.
Sequence of Protein kinase C beta type (P05771 whole entry): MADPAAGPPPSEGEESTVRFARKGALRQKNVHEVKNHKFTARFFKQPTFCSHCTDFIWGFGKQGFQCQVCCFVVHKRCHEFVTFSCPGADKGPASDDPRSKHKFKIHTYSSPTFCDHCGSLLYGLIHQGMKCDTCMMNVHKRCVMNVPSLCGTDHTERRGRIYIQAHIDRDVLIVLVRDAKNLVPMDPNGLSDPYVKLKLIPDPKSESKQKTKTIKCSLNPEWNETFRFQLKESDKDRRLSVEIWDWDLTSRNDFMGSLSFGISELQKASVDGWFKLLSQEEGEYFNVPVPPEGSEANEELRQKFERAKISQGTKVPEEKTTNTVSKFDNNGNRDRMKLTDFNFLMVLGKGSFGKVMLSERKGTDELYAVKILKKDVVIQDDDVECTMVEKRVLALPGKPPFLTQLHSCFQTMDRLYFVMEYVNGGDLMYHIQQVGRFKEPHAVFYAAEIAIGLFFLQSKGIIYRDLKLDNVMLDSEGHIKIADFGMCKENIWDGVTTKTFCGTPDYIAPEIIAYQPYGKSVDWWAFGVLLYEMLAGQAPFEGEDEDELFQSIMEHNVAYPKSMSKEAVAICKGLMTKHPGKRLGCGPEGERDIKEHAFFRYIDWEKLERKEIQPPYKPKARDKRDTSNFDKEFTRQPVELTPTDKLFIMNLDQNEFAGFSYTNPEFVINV
Compound CN(C)C[C@@H]1Cc2c(C3=C(Nc4ccccc4)C(=O)NC3=O)c3ccccc3n2C1 has an IC50 of 8 nM. CN(C)C[C@@H]1CCc2c(C3=C(Nc4ccccc4)C(=O)NC3=O)c3ccccc3n2C1 was tested, and the IC50 was 6 nM. In the case of O=C1NC(=O)C(c2c3n(c4ccccc24)C[C@H](CO)C3)=C1Nc1ccccc1, the IC50 is reported as 14 nM. For CNC[C@H]1Cc2c(C3=C(Nc4ccccc4)C(=O)NC3=O)c3ccccc3n2C1, the IC50 was 2.2 nM. With O=C1NC(=O)C(c2c3n(c4ccccc24)CC[C@@H](CO)C3)=C1Nc1ccccc1 the IC50 was 17 nM. In the case of CN(C)C[C@H]1CCn2c(c(C3=C(Nc4ccccc4)C(=O)NC3=O)c3ccccc32)C1, the IC50 is reported as 2 nM. NC[C@H]1Cc2c(C3=C(Nc4ccccc4)C(=O)NC3=O)c3ccccc3n2C1 showed an IC50 of 1.4 nM. Work on CCN(CC)C[C@H]1Cc2c(C3=C(Nc4ccccc4)C(=O)NC3=O)c3ccccc3n2C1 yielded an IC50 of 32 nM. CCN(C)C[C@H]1Cc2c(C3=C(Nc4ccccc4)C(=O)NC3=O)c3ccccc3n2C1 gave an IC50 of 5 nM. CC(=O)NC[C@H]1Cc2c(C3=C(Nc4ccccc4)C(=O)NC3=O)c3ccccc3n2C1 gave an IC50 of 7.9 nM. CN(C)C[C@@H]1CCn2c(c(C3=C(Nc4ccccc4)C(=O)NC3=O)c3ccccc32)C1 gave an IC50 of 25 nM. Work on O=C1NC(=O)C(c2c3n(c4ccccc24)CC[C@H](CO)C3)=C1Nc1ccccc1 yielded an IC50 of 6 nM. For CCNC[C@H]1Cc2c(C3=C(Nc4ccccc4)C(=O)NC3=O)c3ccccc3n2C1, the IC50 was 2.4 nM.

Same assay, conditions: read-out: pIC50 (converted)
With Cc1ccccc1NC1=C(c2c[nH]c3ccccc23)C(=O)NC1=O the IC50 was 2190 nM. Work on COc1cccc(NC2=C(c3c[nH]c4ccccc34)C(=O)NC2=O)c1 yielded an IC50 of 759 nM. CN(C)CCCCCn1cc(C2=C(Nc3ccccc3)C(=O)NC2=O)c2ccccc21 showed an IC50 of 41.7 nM. Work on O=C1NC(=O)C(c2cn(CCCN3CCCCC3)c3ccccc23)=C1Nc1ccccc1 yielded an IC50 of 17.4 nM. N=C(N)SCCCn1cc(C2=C(Nc3ccccc3)C(=O)NC2=O)c2ccccc21 was tested, and the IC50 was 2.04 nM. In the case of O=C1NC(=O)C(c2c[nH]c3ccccc23)=C1Nc1cccc(C(F)(F)F)c1, the IC50 is reported as 1480 nM. For CN1CCN(CCCn2cc(C3=C(Nc4ccccc4)C(=O)NC3=O)c3ccccc32)CC1, the IC50 was 23.4 nM. Cc1ccc(NC2=C(c3c[nH]c4ccccc34)C(=O)NC2=O)cc1 gave an IC50 of 490 nM.
